Assay results reported in the supplement of paper PMC5908809.

Key:
[1] = system: normal primary NK cells, pool 1 (3 donors), resting (IL-2 0 ng/mL); assay: drug sensitivity score (DSS) (DSS units); higher = more sensitive; extreme values may be limits of the assay; settings: 72 h
YT (IL-2 2.5 ng/mL) [2] = assay: as above; settings: 72 h
DERL-7 (IL-2 2.5 ng/mL) [3] = assay: as above; settings: 72 h
NK-92 (IL-2 2.5 ng/mL) [4] = assay: as above; settings: 72 h
NK-YS (IL-2 2.5 ng/mL) [5] = assay: as above; settings: 72 h
KHYG-1 (IL-2 2.5 ng/mL) [6] = assay: as above; settings: 72 h
NKL (IL-2 2.5 ng/mL) [7] = assay: as above; settings: 72 h
SNK-6 (IL-2 2.5 ng/mL) [8] = assay: as above; settings: 72 h
[9] = system: normal primary NK cells, pool 1 (3 donors) (IL-2 2.5 ng/mL); assay: as above; settings: 72 h
KAI3 (IL-2 2.5 ng/mL) [10] = assay: as above; settings: 72 h
[11] = system: normal primary NK cells, pool 1 (3 donors), resting (IL-2 0 ng/mL); assay: percent inhibition of viability; higher = more inhibition; settings: 72 h
YT (IL-2 2.5 ng/mL) [12] = assay: as above; settings: 72 h
DERL-7 (IL-2 2.5 ng/mL) [13] = assay: as above; settings: 72 h
NK-92 (IL-2 2.5 ng/mL) [14] = assay: as above; settings: 72 h
NK-YS (IL-2 2.5 ng/mL) [15] = assay: as above; settings: 72 h
KHYG-1 (IL-2 2.5 ng/mL) [16] = assay: as above; settings: 72 h
NKL (IL-2 2.5 ng/mL) [17] = assay: as above; settings: 72 h
SNK-6 (IL-2 2.5 ng/mL) [18] = assay: as above; settings: 72 h
[19] = system: normal primary NK cells, pool 1 (3 donors) (IL-2 2.5 ng/mL); assay: as above; settings: 72 h
KAI3 (IL-2 2.5 ng/mL) [20] = assay: as above; settings: 72 h
IMC-1 (IL-2 20 ng/mL) [21] = assay: drug sensitivity score (DSS) (DSS units); higher = more sensitive; extreme values may be limits of the assay; settings: 72 h
[22] = system: normal primary NK cells, pool 3 (3 donors) (IL-2 2.5 ng/mL); assay: as above; settings: 72 h
[23] = system: normal primary NK cells, pool 2 (3 donors) (IL-2 2.5 ng/mL); assay: as above; settings: 72 h
[24] = system: normal NK cells expanded with K562-aAPC; assay: as above; settings: 72 h; IL-2 2.5 ng/mL
Procedure: (§1)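 Drug sensitivity and resistance testing on K562-aAPC-expanded normal NK cells: 5 concentrations (10-fold steps over a 10,000-fold range), 72 h at 37 °C, viability by CellTiter-Glo normalised to DMSO and benzethonium chloride controls; DSS from the fitted curve.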

[25] = system: normal NK cells expanded with K562-aAPC; assay: percent inhibition of viability; higher = more inhibition; settings: 72 h, IL-2 2.5 ng/mL
Procedure: as §1

IMC-1 (IL-2 20 ng/mL) [26] = assay: as above; settings: 72 h
[27] = system: normal primary NK cells, pool 3 (3 donors) (IL-2 2.5 ng/mL); assay: as above; settings: 72 h
[28] = system: normal primary NK cells, pool 2 (3 donors) (IL-2 2.5 ng/mL); assay: as above; settings: 72 h

COc1cc(C(=O)O)ccc1NC(=O)[C@@H]1N[C@@H](CC(C)(C)C)[C@](C#N)(c2ccc(Cl)cc2F)[C@H]1c1cccc(Cl)c1F [RG7388] (max concentration tested 10000 nM)
Settings | drug sensitivity score
DERL-7 (IL-2 2.5 ng/mL) [3] | 23.8
KAI3 (IL-2 2.5 ng/mL) [10] | 18.3
KHYG-1 (IL-2 2.5 ng/mL) [6] | 2.54
NK-92 (IL-2 2.5 ng/mL) [4] | 5
NK-YS (IL-2 2.5 ng/mL) [5] | 23.3
NKL (IL-2 2.5 ng/mL) [7] | 4.61
SNK-6 (IL-2 2.5 ng/mL) [8] | 27.2
YT (IL-2 2.5 ng/mL) [2] | 16.1
[1] | 28.8
[9] | 21.8

percent inhibition of viability [%]
Settings | DERL-7 (IL-2 2.5 ng/mL) [13] | KAI3 (IL-2 2.5 ng/mL) [20] | KHYG-1 (IL-2 2.5 ng/mL) [16] | NK-92 (IL-2 2.5 ng/mL) [14] | NK-YS (IL-2 2.5 ng/mL) [15] | NKL (IL-2 2.5 ng/mL) [17] | SNK-6 (IL-2 2.5 ng/mL) [18] | YT (IL-2 2.5 ng/mL) [12] | [11] | [19]
1 nM | -5.33 | 5.19 | -1.57 | 2.22 | 1.18 | 2.91 | 3.57 | 6.01 | -11.7 | 1.86
10 nM | 3.83 | 25.6 | 1.09 | -12.5 | 18.7 | 8.19 | 25.5 | 14.9 | 10.5 | -0.07
100 nM | 51.1 | 39.8 | -3.21 | 8.42 | 53.1 | 7.58 | 70.5 | 38.6 | 85.2 | 41.8
1000 nM | 96.7 | 59.1 | -4.2 | 8.41 | 82.9 | 5.83 | 81.8 | 50.9 | 92.2 | 90.3
10000 nM | 101 | 68.4 | 53.8 | 65.4 | 99.9 | 67 | 92.7 | 86.7 | 93.6 | 99.1

CC(=O)O[C@]1(C(C)=O)CC[C@H]2[C@@H]3C=C(C)C4=CC(=O)CC[C@]4(C)[C@H]3CC[C@@]21C [Megestrol acetate] (max concentration tested 10000 nM)
Settings | drug sensitivity score
IMC-1 (IL-2 20 ng/mL) [21] | 0
[22] | 1.28
[23] | 4.38
[24] | 2.54

percent inhibition of viability [%]
Settings | 1 nM | 10 nM | 100 nM | 1000 nM | 10000 nM
IMC-1 (IL-2 20 ng/mL) [26] | -3.51 | -1.23 | -4.32 | -2.13 | 10.4
[25] | -2.74 | -5.98 | 7.94 | 13.9 | 28.7
[27] | -8.34 | -5.63 | 0.83 | 2.52 | 24.3
[28] | -3.39 | 3.68 | -0.74 | 11.2 | 49.3
